# Tests used:
# [1] = Liver retinoids of Lrat-/- mice 3 h after gavage with all-trans-RA; format: in vivo, mouse; details: 3 h post-gavage
# Excerpt: Metabolism of Retinoids in Vivo. All animal experiments employed procedures approved by the University of Washington and conformed to recommendations of the American Veterinary Medical Association Panel on Euthanasia and recommendations of the Association of Research for Vision and Ophthalmology. Animals were maintained on a 12-h light and 12-h dark cycle. All manipulations were done under dim red or infrared light (>560 nm). Most experiments used 6-12-week-old mice. Lrat−/− mice were genotyped as described previously. Batten, et al. J. Biol. Chem. 279:10422-10432, 2004. Animals were maintained on a control chow diet up to 1 h prior to oral gavage. The appropriate amount of all-trans-ROL palmitate, all-trans-DROL, or all-trans-RA was dissolved in vegetable oil and administered by oral gavage 3 h prior to analysis.
# Analysis of Retinoids. Liver (1 g) from retinoid gavaged or naive mice was homogenized in 2 ml of 137 mM NaCl, 2.7 mM KCl, and 10 mM sodium phosphate (pH 7.4) for 30 s using a Polytron homogenizer. 10 μl of 5 M NaOH was added to 3 ml of the ethanolic extract, and the nonpolar retinoids were extracted using 5 ml of hexane. The extraction was repeated, and the organic phases were combined, dried under vacuum, resuspended in hexane, and examined by normal phase HPLC using a normal phase column (Beckman Ultrasphere Si 5μ, 4.6×250 mm). […] The HPLC elution conditions were […], 100% buffer A for 40 min, 100% buffer B for 10 min, and 10 min equilibration in buffer A. The elution profiles of RA and DRA were monitored using an online diode array detector set at 350 and 290 nm, respectively. […] The measured area of absorbance was converted to picomoles based on a calibration of the HPLC columns using a known amount of all-trans-RA or all-trans-ROL (Sigma) and all-trans-DROL or all-trans-DRA (synthetic standards). The extraction efficiency was monitored by spiking a tissue sample with [^3H]RA (PerkinElmer Life Sciences) and monitoring the radioactivity recovered from the HPLC column. […]
# tomato CRTISO = biological target: T1, tomato CRTISO (Solanum lycopersicum, UniProt Q8S4R4); assay: CRTISO activity in transfected HEKK cells; format: cell-based; details: CRTISO-expressing cells, overnight, in the dark
# T1 construct: expressed in transfected cells
# T1 sequence (Q8S4R4 with tags, fused parts or gaps): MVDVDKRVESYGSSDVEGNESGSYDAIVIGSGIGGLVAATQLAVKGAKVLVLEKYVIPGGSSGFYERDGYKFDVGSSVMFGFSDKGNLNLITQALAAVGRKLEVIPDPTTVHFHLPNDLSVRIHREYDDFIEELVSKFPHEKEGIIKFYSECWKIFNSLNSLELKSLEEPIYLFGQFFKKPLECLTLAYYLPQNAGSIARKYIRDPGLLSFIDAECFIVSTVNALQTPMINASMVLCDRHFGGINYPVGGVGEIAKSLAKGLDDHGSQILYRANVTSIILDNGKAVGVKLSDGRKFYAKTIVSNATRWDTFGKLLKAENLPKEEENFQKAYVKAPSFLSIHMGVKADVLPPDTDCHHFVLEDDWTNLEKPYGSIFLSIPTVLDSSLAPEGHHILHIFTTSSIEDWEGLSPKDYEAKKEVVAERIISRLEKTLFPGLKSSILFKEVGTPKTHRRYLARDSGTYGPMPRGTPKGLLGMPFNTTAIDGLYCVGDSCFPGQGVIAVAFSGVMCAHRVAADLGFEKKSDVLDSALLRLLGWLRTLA
# Description: 7Z,9Z,9′Z,7′Z-Tetra-cis-tycopene purification and reverse-phase HPLC analysis of carotenoids. Carotenoid extraction and analysis were performed under dim red light. One gram from the fruit of a tangerine tomato was freeze-thawed three times and extracted with 2 ml PBS, 2 ml of ethanol, and 6 ml of hexane with the aid of a douncer. The organic phase was dried and resuspended in ethanol/tetrahydrofuran (9:1), and examined by reverse-phase HPLC System I (Prontosil, 200-3-C30, 3 μm, 4.6 mm×250 mm, Bischoff Chromatography, Leonberg, Germany) with a mobile phase of 75% tert-butyl methyl ether/25% methanol and a flow rate of 1 ml/min. More than 90% of the extract consisted of 7Z,9Z,9′Z,7′Z-tetra-cis-lycopene identified based on its published UV/VIS absorption spectrum in hexane with the following characteristics: shoulder at λ=417 nm, ε=90,000 M^−1cm^−1, λmax=437 nm, ε=105,000 M−1 cm^−1, shoulder at λ=461 nm ε=70,000 M^−1cm^−1. Bradford, Anal Biochem 72:248-254, 1976.
# Enzyme assays of RetSat and CRTISO-catalyzed reactions. For enzyme assay, cells were seeded in six-well plates and expression of RetSat or CRTISO was induced with 1 μg/ml tetracycline 48 hr prior to analysis. […] For retinol and dihydroretinol analysis the methanol:water mixture was extracted with two volumes of hexane, then the organic phase was dried, resuspended in hexane, and analyzed by normal-phase HPLC. […]
SMILES,Formation in liver after gavage with all-trans-RA [1],Conversion by CRTISO (substrate activity) (tomato CRTISO)
"CC1=C(/C=C/C(C)=C/C=C/C(C)CC(=O)O)C(C)(C)CCC1 (stereo not drawn) [all-trans-DRA, all-trans-13,14-dihydroretinoic acid]",no evidence,–
"CC1=C(/C=C/C(C)=C/C=C/C(C)=C/CO)C(C)(C)CCC1 [all-trans-ROL, all-trans-retinol]",–,no saturase activity

# — patent US20080249042A1, “All-Trans-Retinol: All-Trans-13,14-Dihydroretinol Saturase and Methods of Its Use” (UNIVERSITY OF WASHINGTON, priority 2004, published 2008)
